Data from patent publication US20160115200A1, “New Use for JNK Inhibitor Molecules for Treatment of Various Diseases” (XIGEN INFLAMMATION LTD., priority 2013, published 2016).
Square brackets hold non-standard residues; d marks the D form. Ends that are not written are not given here.

Legend:
[1] = test system: IMQ-induced psoriasis in BALB/c mice; test: Imiquimod-induced psoriasis in mice, ear histopathology; format: in vivo, mouse; settings: Prednisolone 10 mg/kg PO daily; for inflammation of the ear (average histopathology grade) vs vehicle-IMQ group: statistically significant
Description: Female BALB/cAnNCrl mice (Charles River, age 8 to 10 weeks at study start) have been assigned to the following groups (treatment schedule):
In this experiment, two positive controls have been utilized. Firstly, Prednisolone at 10 mg/kg (vehicle: 1% Hydroxyethylcellulose, 0.25% Polysorbate 80, and 0.05% Antifoam in purified water) has been dosed daily and orally (group “Prednisolone”). Secondly, Dexamethasone has been administered at 0.5 mg/kg (vehicle: sterile 0.9% NaCl) on days 1, 4 and 7 via intravenous route.
On day 8, animals have been sacrificed and the tissue (ear) has been fixed in 10% neutral buffered formalin. For histopathology hematoxylin-and-eosin-stained sections (cross cut) have been prepared and microscopic evaluation on the collected tissues from all animals has been performed. Methods and end-points for histopathology were similarly described in the van der Fits (2009) paper in that inflammation, epidermal hyperplasia, epidermal hyperkeratosis (rather than parakeratosis) were observed and recorded for severity grade, whereby the respective methodology from Van der Fits et al. (The Journal of Immunology 2009, 182, P. 5836-5845) is hereby incorporated by reference. Histopathology grading scores were excluded for either skin or ear in animals with secondary inflammatory processes (full thickness epidermal ulcers). Scores were averaged by group and standard deviation and statistical significance were calculated. […] Formalin-fixed, paraffin embedded skin from the dorsal surface of the mouse (BALB/c) was stained with hematoxylin and eosin (H&E) stain and assessed microscopically. An important difference from the above reference and to describe in more detail the observations of the present study: Hyperkeratosis can be defined specifically as orthokeratotic (no retained nuclei) or parakeratotic (retained nuclei). Either can occur normally in various anatomical locations and depending on species; however, both conditions are well defined in particular disease states. The van der Fits paper describes their Imiquimod (IMQ)-induced psoriasis model as causing parakeratotic hyperkeratosis similar to what is seen in the human condition, and that was a defined end-point for this study. However, the Danilenko et al. (Veterinary Pathology 2008 45:563) has shown that many rodent psoriasis models have orthokeratotic hyperkeratosis. […] The more general term ‘hyperkeratosis’ was used for grading end-points and describe in the text what type was seen (primarily orthokeratotic).
1=MI=minimal 2=SL=slight 3=M0=moderate 4=MA=marked 5=SE=severe

[2] = test system: established type II collagen arthritis in rats; settings: Dex 0.05 mg/kg IV QD
[3] = test system: endotoxins-induced uveitis albino rat model; test: Endotoxins-induced uveitis (EIU), single intravenous injection, clinical scoring 24 h after LPS; format: in vivo; parameters: key to EIU clinical score, median: clinical score per eye, 0 to 4 scale; settings: 20 μg/eye sub-conjunctival, 24 hours after LPS
Description: The aim of this study was to determine the effects of single intravenous injections of SEQ ID NO: 172 (0.015, 0.18, and 1.80 mg/kg) on the inflammatory response in an endotoxins-induced uveitis albino rat model and to compare these affects to those obtained with prior art JNK inhibitor of SEQ ID NO: 197 (2 mg/kg). As a further control served phosphate sodic dexamethasone.
Sixty (60) male Lewis rats were randomly divided into six (6) groups of ten (10) animals each. EIU was induced by footpad injection of lipopolysaccharide (LPS, 1 mg/kg). NaCl (0.9%), SEQ ID NO: 197 at 2 mg/kg and SEQ ID NO: 172 at three concentrations (1.80 mg/kg, 0.18 mg/kg and 0.015 mg/kg) were administered by intravenous injection. Phosphate sodic dexamethasone (20 μg/eye) was administered by sub-conjunctival injection in both eyes. 24 hours after LPS injection, inflammatory response was evaluated by clinical scoring.
The intensity of clinical ocular inflammation was scored on a scale from 0 to 4 for each eye: […]

Hela cells = test: Internalization of TAT derived transporters, 24 hours, fluorescence of cell extracts (FIG. 6); format: cell-based; settings: Y in position 2
Description: The transporter sequences analyzed correspond to SEQ ID NOs: 52-94 plus SEQ ID NOs: 45, 47, 46, 43 and 99 (FIG. 6a) and SEQ ID NOs: 100-147 (FIG. 6b). […] Hela cells were incubated 24 hours in 96 well plate with […] of the respective transporters. The cells were then washed twice with an acidic buffer (0.2M Glycin, 0.15M NaCl, pH 3.0) and twice with PBS. Cells were broken by the addition of RIPA lysis buffer. The relative amount of internalized peptide was then determined by reading the fluorescence intensity (Fusion Alpha plate reader; PerkinElmer) of each extract followed by background subtraction.
Hela cells were incubated 24 hours in 96 well plate with […] of the r3-L-TAT-derived transporters. The cells were then washed twice with an acidic buffer (0.2M Glycin, 0.15M NaCl, pH 3.0) and twice with PBS. Cells were broken by the addition of RIPA lysis buffer. The relative amount of internalized peptide was then determined by reading the fluorescence intensity (Fusion Alpha plate reader; PerkinElmer) of each extract followed by background subtraction

C[C@]12C=CC(=O)C=C1CC[C@@H]1[C@@H]2[C@@H](O)C[C@@]2(C)[C@H]1CC[C@]2(O)C(=O)CO [Prednisolone, reference compound]
epidermal hyperkeratosis of the ear, average grades vs vehicle-IMQ group [1]: minimally decreased average grades | epidermal hyperplasia of the ear vs vehicle-IMQ group ([1]; not statistically significant): below that of the vehicle-IMQ dose group | inflammation of the ear (average histopathology grade) vs vehicle-IMQ group [1]: decreased inflammation of the ear | inflammation of the ear (average histopathology grade) vs vehicle-IMQ group ([1]; listed as prednisolone): significant differences from the vehicle control group

C[C@@H]1C[C@H]2[C@@H]3CCC4=CC(=O)C=C[C@]4(C)[C@@]3(F)[C@@H](O)C[C@]2(C)[C@@]1(O)C(=O)CO [dexamethasone, reference compound]
spleen weights relative to body weight vs disease controls [2]: significantly (p<0.05 by ANOVA) reduced | thymus weights relative to body weight vs disease controls [2]: significantly (p<0.05 by ANOVA) reduced | EIU clinical score, mean±SEM [3]: 0.8±0.2 | EIU clinical score, median [3]: 0.5 | reduction of clinical scores vs vehicle [3]: 79%

rYKRrQRRr ([dR]YKR[dR]QRR[dR]) [SEQ ID NO: 142]
transporter activity and kinetics of transport (position scan) (Hela cells): highest transporter activity
